Data on 5 compounds can be found in ChEMBL document CHEMBL4007492, “Discovery of an Acrylic Acid Based Tetrahydroisoquinoline as an Orally Bioavailable Selective Estrogen Receptor Degrader for ERα+ Breast Cancer” (J Med Chem, 2017).

For data set [1], the system named is Plasma. Description: Metabolic stability of the compound in Sprague Dawley rat plasma assessed as compound racemization rate at 5 uM after 4 hrs by UPLC analysis. The class given is ADME, cell-free.
Data set [2] has as its system Plasma. Nature of the data set: Metabolic stability of the compound in human plasma assessed as compound racemization rate at 5 uM after 4 hrs by UPLC analysis. The class given is ADME, cell-free.
The test system of data set [3] is Plasma. Description: Metabolic stability of the compound in cynomolgus monkey plasma assessed as compound racemization rate at 5 uM after 4 hrs by UPLC analysis. The class given is ADME, cell-free, Macaca fascicularis.
The test system of data set [4] is Plasma. Description: Metabolic stability of the compound in Beagle dog plasma assessed as compound racemization rate at 5 uM after 4 hrs by UPLC analysis. The class given is ADME, cell-free, Canis lupus familiaris.
In data set [5] the test system is Plasma. Nature of the data set: Metabolic stability of the compound in C57BL/6 mouse plasma assessed as compound racemization rate at 5 uM after 4 hrs by UPLC analysis. The class given is ADME, cell-free.
A short description of data set [6]: Stability of the compound in aqueous buffer assessed as compound racemization rate at 5 uM at pH 6.8 after 4 hrs by UPLC analysis. It is filed as physicochemical. The settings on record: pH 6.8, 4 h.
Data set [7] in a line: Stability of the compound in aqueous buffer assessed as compound racemization rate at 5 uM at pH 7.4 after 4 hrs by UPLC analysis. The class given is physicochemical. Particulars: pH 7.4, 4 h.
Data set [8] in a line: Stability of the compound in methanol at room temperature assessed as compound racemization rate at 5 uM at pH 6.8 after 1 hr by UPLC analysis. The class given is physicochemical. The settings on record: pH 6.8, 1 h.
For data set [9] the following is noted: pampa, 4 h, 5 µM.
A further data set can be described thus: physchem. Particulars: buffer, pH 6.8.
Data set [10] in a line: Oral bioavailability in Sprague-Dawley rat at 3 mg/kg administered as solution measured up to 7 hrs by LC/MS/MS analysis. It is filed as ADME, organism-based. The settings on record: in vivo.
The test system of data set [11] is Rattus norvegicus. Description: Dose normalized Cmax in Sprague-Dawley rat at 3 mg/kg, po administered as solution measured up to 7 hrs by LC/MS/MS analysis. The class given is ADME, organism-based. The settings on record: in vivo.
The nature of data set [12]: Tmax in Sprague-Dawley rat at 3 mg/kg, po administered as solution measured up to 7 hrs by LC/MS/MS analysis. The class given is ADME, organism-based. Particulars: in vivo.
Data set [13] relates to Rattus norvegicus. Nature of the data set: Dose normalized AUC (0 to t) in Sprague-Dawley rat at 3 mg/kg, po administered as solution measured up to 7 hrs by LC/MS/MS analysis. The class given is ADME, organism-based. Particulars: in vivo.
Data set [14] relates to Rattus norvegicus. Nature of the data set: Dose normalized AUC (0 to t) in Sprague-Dawley rat at 1 mg/kg, iv administered as solution measured up to 7 hrs by LC/MS/MS analysis. It is filed as ADME, organism-based. Particulars: in vivo.
Data set [15] can be described thus: Clearance in Sprague-Dawley rat at 3 mg/kg, po administered as solution measured up to 7 hrs by LC/MS/MS analysis. It is filed as ADME, organism-based. The settings on record: in vivo.
The nature of data set [16]: Elimination half life in Sprague-Dawley rat at 1 mg/kg, iv or 3 mg/kg, po administered as solution measured up to 7 hrs by LC/MS/MS analysis. The class given is ADME, organism-based. Particulars: in vivo, read-out: beta t1/2 (converted).
The test system of data set [17] is Rattus norvegicus. Description: Dose normalized Cmax in Sprague-Dawley rat at 30 mg/kg, po administered as suspension measured up to 7 hrs by LC/MS/MS analysis. The class given is ADME, organism-based. The settings on record: in vivo.
Data set [18] in a line: Tmax in Sprague-Dawley rat at 30 mg/kg, po administered as suspension measured up to 7 hrs by LC/MS/MS analysis. It is filed as ADME, organism-based. Particulars: in vivo.
Data set [19] deals with Rattus norvegicus. Nature of the data set: Dose normalized AUC (0 to t) in Sprague-Dawley rat at 30 mg/kg, po administered as suspension measured up to 7 hrs by LC/MS/MS analysis. The class given is ADME, organism-based. Particulars: in vivo.
The test system of data set [20] is Rattus norvegicus. Description: Dose normalized Cmax in Sprague-Dawley rat at 100 mg/kg, po administered as suspension measured up to 7 hrs by LC/MS/MS analysis. Particulars: in vivo. The class given is ADME, organism-based.
Data set [21] can be described thus: Tmax in Sprague-Dawley rat at 100 mg/kg, po administered as suspension measured up to 7 hrs by LC/MS/MS analysis. It is filed as ADME, organism-based. The settings on record: in vivo.
In data set [22] the test system is Rattus norvegicus. Description: Dose normalized AUC (0 to t) in Sprague-Dawley rat at 100 mg/kg, po administered as suspension measured up to 7 hrs by LC/MS/MS analysis. It is filed as ADME, organism-based. The settings on record: in vivo.
The subject of data set [23] is Rattus norvegicus. Description: Dose normalized Cmax in Sprague-Dawley rat at 3 mg/kg, po administered as suspension measured up to 7 hrs by LC/MS/MS analysis. It is filed as ADME, organism-based. Particulars: in vivo.
Data set [24] in a line: Tmax in Sprague-Dawley rat at 3 mg/kg, po administered as suspension measured up to 7 hrs by LC/MS/MS analysis. It is filed as ADME, organism-based. Particulars: in vivo.
Data set [25] deals with Rattus norvegicus. Nature of the data set: Dose normalized AUC (0 to t) in Sprague-Dawley rat at 3 mg/kg, po administered as suspension measured up to 7 hrs by LC/MS/MS analysis. It is filed as ADME, organism-based. The settings on record: in vivo.
The nature of data set [26]: Oral bioavailability in Beagle dog at 10 mg/kg administered as solution measured up to 7 hrs by LC/MS/MS analysis. It is filed as ADME, organism-based, Canis lupus familiaris. Particulars: in vivo.
Data set [27] has as its system Canis familiaris. Nature of the data set: Dose normalized Cmax in Beagle dog at 10 mg/kg, po administered as solution measured up to 7 hrs by LC/MS/MS analysis. The class given is ADME, organism-based, Canis lupus familiaris. The settings on record: in vivo.
For data set [28], the system named is Canis familiaris. Nature of the data set: Dose normalized AUC (0 to t) in Beagle dog at 10 mg/kg, po administered as solution measured up to 7 hrs by LC/MS/MS analysis. It is filed as ADME, organism-based, Canis lupus familiaris. Particulars: in vivo.
The subject of data set [29] is Canis familiaris. Nature of the data set: Dose normalized AUC (0 to t) in Beagle dog at 0.3 mg/kg, iv administered as solution measured up to 7 hrs by LC/MS/MS analysis. It is filed as ADME, organism-based, Canis lupus familiaris. Particulars: in vivo.
Data set [30] can be described thus: Tmax in Beagle dog at 10 mg/kg, po administered as solution measured up to 7 hrs by LC/MS/MS analysis. Particulars: in vivo. The class given is ADME, organism-based, Canis lupus familiaris.
Data set [31] can be described thus: Clearance in Beagle dog at 10 mg/kg, po administered as solution measured up to 7 hrs by LC/MS/MS analysis. It is filed as ADME, organism-based, Canis lupus familiaris. The settings on record: in vivo.
Data set [32] can be described thus: Elimination half life in Beagle dog at 0.3 mg/kg, iv or 10 mg/kg, po administered as solution measured up to 7 hrs by LC/MS/MS analysis. The class given is ADME, organism-based, Canis lupus familiaris. Particulars: in vivo, read-out: beta t1/2 (converted).
Data set [33] deals with Rattus norvegicus. Description: Clearance in Sprague-Dawley rat at 3 mg/kg, po administered as solution measured up to 7 hrs by LC/MS/MS analysis relative to hepatic blood flow. It is filed as ADME, organism-based. The settings on record: in vivo.
Data set [34] has as its system Canis familiaris. Nature of the data set: Clearance in Beagle dog at 10 mg/kg, po administered as solution measured up to 7 hrs by LC/MS/MS analysis relative to hepatic blood flow. The class given is ADME, organism-based, Canis lupus familiaris. The settings on record: in vivo.
For data set [35], the species on record is Mus musculus. The settings on record: in vivo, po, 3 mg/kg, 7 h.
For data set [36], the species on record is Mus musculus. The settings on record: in vivo, po, 3 mg/kg.
The species entered for data set [37] is Mus musculus. Particulars: in vivo, iv, 1 mg/kg.
Data set [38] can be described thus: in vivo. Particulars: C57BL/6, mouse, po, 3 mg/kg.
A short description of data set [39]: in vivo. The settings on record: C57BL/6, mouse, iv, 1 mg/kg.
Data set [40] can be described thus: in vivo. Particulars: C57BL/6, mouse.

Converted amounts (≈) assume the structure as drawn.

Regarding `CC(C)c1ccc(N2CCc3cc(O)ccc3[C@@]2(C)c2ccc(/C=C/C(=O)O)cc2)cc1`, the Drug metabolism result (in the data set with Plasma [1]; in the data set on Plasma [2]; in the data set on Plasma [3]; in the data set with Plasma [4]; in the data set on Plasma [5]; in [6]) was “Metabolite_Detected” each time. In addition, the Drug metabolism entry in data set [7] and in data set [8] was “Metabolite_Detected” throughout.
The solubility is how much of the substance goes into solution per volume. Take `CC1(c2ccc(/C=C/C(=O)NCC(F)F)cc2)c2ccc(O)cc2CCN1c1ccc(F)cc1` (stereo not drawn): in data set [9], the “log(permeability)” value is on record as -4.2. In the data set “physchem”, the solubility at 16 h is less than 5 µM.
Turning to `CC(C)c1ccc(N2CCc3cc(O)ccc3[C@]2(C)c2ccc(/C=C/C(=O)O)cc2)cc1`, the Drug metabolism entry (with Plasma [1]; in the data set on Plasma [2]; with Plasma [3]; with Plasma [4]; in the data set on Plasma [5]; in [6]) was “Metabolite_Detected” throughout. Besides, the Drug metabolism result in data set [7] and in data set [8] was “Metabolite_Detected” throughout.
In the case of `CC1(c2ccc(/C=C/C(=O)O)cc2)c2ccc(O)cc2CCN1c1cccc(F)c1` (stereo not drawn), the “log(permeability)” value in data set [9] is reported as -4.3. In addition, the concentration in solution in “physchem” (solubility at 16 h) was 561 µM (≈ 226 µg/mL).
As a reminder, the bioavailability is dose-corrected exposure relative to a reference, in per cent. In general, Tmax refers to the time at which the peak concentration occurs. As usually defined, the CL/F is the apparent clearance, not corrected for the fraction that reaches the circulation. Usually clearance stands for a measure of how efficiently the substance is removed, as volume per time. For the compound `CC(C)c1ccc(N2CCc3cc(O)ccc3C2(C)c2ccc(/C=C/C(=O)O)cc2)cc1` (stereo not drawn), the bioavailability in [10] is 60%; in [26], 56%. Also, the Cmax/dose in the data set with Rattus norvegicus [11] was 1199 nM; with Rattus norvegicus [17] it was 346 nM; in the data set with Rattus norvegicus [20], 202 nM; in the data set on Rattus norvegicus [23], 602 nM; with Canis familiaris [27], 1311 nM; in the data set filed under Mus musculus [35] it was 2621 nM. The Tmax in data set [12] is 0.3 h; in [18], 2 h; in data set [21], 1.5 h; in data set [24] it was 0.3 h; in data set [30], 1.2 h. For the same compound, the AUCt/dose was 1586 nM·h/mg in the data set with Rattus norvegicus [13]; 2627 nM·h/mg in the data set on Rattus norvegicus [14]; 1125 nM·h/mg in the data set on Rattus norvegicus [19]; 918 nM·h/mg with Rattus norvegicus [22]; 955 nM·h/mg in the data set on Rattus norvegicus [25]; 7994 nM·h/mg in the data set on Canis familiaris [28]. Besides, the AUCt/dose with Canis familiaris [29] was determined as 14347 nM·h/mg. In addition, the results for the CL/F in data set [15] and in [31] were 14.9 mL/min/kg and 2.3 mL/min/kg, respectively. Besides, the half-life was 0.8 h in [16] and 5 h in [32]. Besides, the CL is 27% with Rattus norvegicus [33] and 7% with Canis familiaris [34]. For the same compound, the “log(permeability)” value in [9] is recorded as -4.1. The AUC/dose was 4533 nM·h/mg in the data set filed under Mus musculus [36] and 5808 nM·h/mg in the data set filed under Mus musculus [37]. Also, the bioavailability at 7 h in “in vivo [38]” turned out to be 78%. The compound further gave a clearance at 7 h in “in vivo [39]” of 7 mL/min/kg. This compound showed a half-life at 7 h in “in vivo [40]” of 1.1 h. Besides, in “physchem”, the solubility at 16 h came to 94 µM (≈ 40.2 µg/mL).
